Results reported in article PMC8469395 (Pharmaceutics, 2021).
Where two headings read alike, the source gives them in different places.

Assays:
TR-iBRB2 cells [1] = experiment: Effect of compounds on [3H]amantadine uptake by TR-iBRB2 cells; assay type: in vitro ADME, rat; conditions: for activity at 200 µM / activity at 2500 µM: Rattus norvegicus, 0.05 h, read-out: [3H]amantadine uptake, % of Control, TR-iBRB2
Description: (§1) In 10% fetal bovine serum (FBS; Merck, Darmstadt, Germany)-containing Dulbecco’s modified Eagle’s medium (DMEM; Nissui Pharmaceutical, Tokyo, Japan) with 20 mM NaHCO3, 0.19 mM benzylpenicillin potassium, and 0.14 mM streptomycin sulfate, TR-iBRB2 cells (passage number 32–60) were cultured according to previous reports. As described previously, RPE-J cells (passage number 79-92) were cultured in DMEM with 4% FBS, 20 mM NaHCO3, and 0.1 mM non-essential amino acid (FUJIFILM Wako Pure Chemical, Osaka, Japan) containing 0.16 mM benzylpenicillin potassium and 0.17 mM streptomycin sulfate. In accordance with established protocols for the uptake study, the cells were seeded at a density of 1.0 × 10^5 cells/well onto a collagen I-coated 24-well plate (BioCoat™ Collagen I Cellware, Corning, Corning, NY, USA) and cultured for 2 days, at 33 °C, under 5% CO2/air. Referring to the previous reports, we started the uptake reaction, and the details of the procedure are included in the Supplemental Materials.
(§2) Cell/medium ratio = [^3H]compound (dpm) per cell protein (mg)/[^3H]compound (dpm) per medium (µL)(2) […]
(§3) 7.4) three times at 37°C.
(§4) and KHCO3, respectively. Cl--free ECF buffer was prepared by replacing equimolar
(§5) protein assay kit (Bio-Rad, Hercules, CA, USA).

TR-iBRB2 cells [2] = experiment: Amantadine uptake by TR-iBRB2 cells (inner BRB model); assay type: in vitro ADME, rat
Description: as §1
(§6) Cell/medium ratio = [^3H]compound (dpm) per cell protein (mg)/[^3H]compound (dpm) per medium (µL)(2)
(§7) Kinetic parameters for cell uptake, such as the maximal uptake rate (Vmax), Michaelis–Menten constant (Km), and non-saturable uptake clearance (Kd), were obtained by using the nonlinear least-squares regression analysis program (MULTI) with Equations (3)–(5), where the uptake rate of the test compound and its concentration were V and S, respectively. V = (Vmax × S)/(Km + S)(3) V = (Vmax × S)/(Km + S) + Kd × S(4) V = (Vmax1 × S)/(Km1 + S) + (Vmax2 × S)/(Km2 + S)(5) […]
as §3, §4, §5

RPE-J cells [3] = experiment: Effect of compounds on [3H]amantadine uptake by RPE-J cells; assay type: in vitro ADME, rat; conditions: for activity at 200 µM / activity at 1000 µM / activity at 2500 µM: Rattus norvegicus, 0.05 h, read-out: [3H]amantadine uptake, % of Control, RPE-J; for [3H]amantadine uptake, % of Control, RPE-J: [3H]amantadine 1.67 µM, 3 min, 37 °C
Description: as §1, §2, §3, §4, §5

[4] = set-up: method as in ref 31 = [31]; 31. Grabowski T. Gumulka S.W. Borucka B. Raszewski W. Analysis relationships between pharmacokinetic parameters in silico/in vivo of selected antiviral drugs based on structural analysis Adv. Clin. Ex; conditions: cited from earlier work
[5] = cited from earlier work
NMDA receptors = target: NMDA receptors; set-up: method as in ref 47 (Parsons et al.); conditions: ref 47 (Parsons et al.); cited from earlier work
[6] = tested on: retina (blood–retinal barrier); experiment: In vivo blood-to-retina transport, retinal uptake index (RUI) method; conditions: co-administration of 50 mM compound, rat
[7] = pharmacotherapy for Parkinson's disease; cited from earlier work
RPE-J cells [8] = experiment: Amantadine uptake by RPE-J cells (outer BRB model); assay type: in vitro ADME, rat; conditions: for Km1 (high-affinity process): 1.67 µM−10 mM
Description: as §1, §6, §7, §3, §4, §5

TR-iBRB2 cells [9] = conditions: read-out: Km for uptake by TR-iBRB2 cells; cited from earlier work
[10] = compound 0.2 mM, [3H]amantadine 1.67 µM, 3 min, 37 °C
[11] = pretreatment 30 mM NH4Cl, 15 s, 37 °C

## CC(=O)Nc1nnc(S(N)(=O)=O)s1 [Acetazolamide]
TR-iBRB2 cells [1]; [10]
  [3H]amantadine uptake, % of Control, TR-iBRB2: 90.9 ± 3.8 % of Control

## NC12CC3CC(CC(C3)C1)C2 [Amantadine]
TR-iBRB2 cells [1]
  activity at 200 µM: 34.1 ± 4.1%
TR-iBRB2 cells [2]
  reduction of uptake at extracellular pH 6.4: 64%
TR-iBRB2 cells [2]; 4 °C vs 37 °C
  reduction of uptake at 4 °C: 86%
TR-iBRB2 cells [2]; 37 °C, 3 min, 1.67 to 1000 µM
  Km: 79.4 µM
  Vmax: 1.36 ± 0.38 nmol/(min·mg protein)
TR-iBRB2 cells [2]; 3 min, 37 °C
  reduction of uptake in Cl−-free buffer: 38%
TR-iBRB2 cells [2]; [3H]amantadine 1.67 µM, 37 °C
  initial uptake rate: 14.0 ± 4.1 µL/(min·mg protein)
TR-iBRB2 cells [2]; acute 30 mM NH4Cl, 15 s, 37 °C
  decrease of uptake at alkalized intracellular pH: 80%
TR-iBRB2 cells [2]; [11]
  increase of uptake at acidified intracellular pH: 90%
RPE-J cells [3]
  activity at 200 µM: 89.9 ± 5.6%
  activity at 1000 µM: 21.3 ± 3.1%
[4]
  log D: 0.176
[5]
  pKa: 10.1
NMDA receptors
  IC50: 20 µM
[6]
  decrease of [3H]amantadine RUI: 44%
[7]
  plasma concentration range: 600 to 29000 nM
RPE-J cells [8]
  Km2 (low-affinity process): 9830 ± 1620 µM
  Vmax1 (high-affinity process): 0.914 ± 0.510 nmol/(min·mg protein)
  Vmax2 (low-affinity process): 85.3 ± 11.4 nmol/(min·mg protein)
  contribution of the high-affinity process: 54%
  contribution of the low-affinity process: 46%
  decrease of uptake at extracellular pH 6.4: 32%
  increase of uptake at extracellular pH 8.4: 25%
  Km1 (high-affinity process): 90.5 ± 49.6 µM
RPE-J cells [8]; listed as amantadine
  Km1 (high-affinity process): 90.5 µM
  Km2 (low-affinity process): 9830 µM
RPE-J cells [8]; 4 °C vs 37 °C
  reduction of uptake at 4 °C: 87%
RPE-J cells [8]; [3H]amantadine 1.67 µM, 37 °C
  initial uptake rate: 15.9 ± 0.3 µL/(min·mg protein)
RPE-J cells [8]; acute 30 mM NH4Cl, 15 s, 37 °C
  decrease of uptake at alkalized intracellular pH: 78%
RPE-J cells [8]; [11]
  increase of uptake at acidified intracellular pH: 18%

## C[N+](C)(C)CCO [Choline]
TR-iBRB2 cells [1]
  activity at 200 µM: 101 ± 8%
RPE-J cells [3]
  activity at 200 µM: 124 ± 39%

## CN/C(=N/CCSCc1nc[nH]c1C)NC#N [Cimetidine]
TR-iBRB2 cells [1]
  [3H]amantadine uptake, % of Control, TR-iBRB2: 97.6 ± 24.7 % of Control
RPE-J cells [3]; compound 0.2 mM
  [3H]amantadine uptake, % of Control, RPE-J: 106 ± 5 % of Control

## Clc1cccc(Cl)c1N=C1NCCN1 [Clonidine]
TR-iBRB2 cells [1]
  activity at 200 µM: 42.1 ± 12.1%
TR-iBRB2 cells [1]; compound 0.2 mM
  reduction of [3H]amantadine uptake by TR-iBRB2 cells: more than 58%
TR-iBRB2 cells [9]
  Km: 286 µM
RPE-J cells [3]
  activity at 200 µM: 71.6 ± 4.7%
  activity at 1000 µM: 30.8 ± 4%

## CCN1/C(=C/c2ccc3ccccc3[n+]2CC)C=Cc2ccccc21.[I-] [Decynium-22]
TR-iBRB2 cells [1]; [10]
  [3H]amantadine uptake, % of Control, TR-iBRB2: 106 ± 31 % of Control
RPE-J cells [3]; compound 0.2 mM
  [3H]amantadine uptake, % of Control, RPE-J: 86.7 ± 41.9 % of Control
RPE-J cells [3]; compound 0.5 mM
  [3H]amantadine uptake, % of Control, RPE-J: 136 ± 8 % of Control

## CNCCCN1c2ccccc2CCc2ccccc21 [Desipramine]
TR-iBRB2 cells [1]; [10]
  [3H]amantadine uptake, % of Control, TR-iBRB2: 7.05 ± 0.57 % of Control
RPE-J cells [3]; compound 0.2 mM
  [3H]amantadine uptake, % of Control, RPE-J: 10.7 ± 5.6 % of Control

## N#CC(C#N)=NNc1ccc(OC(F)(F)F)cc1 [FCCP, carbonyl cyanide-p-trifluoromethoxyphenylhydrazone]
TR-iBRB2 cells [1]
  decrease of [3H]amantadine uptake: 50%

## O=C(O)[C@H](O)[C@@H](O)[C@H](O)[C@H](O)CO [Gluconate]
TR-iBRB2 cells [1]; [10]
  [3H]amantadine uptake, % of Control, TR-iBRB2: 91.7 ± 21.7 % of Control
RPE-J cells [3]; compound 0.2 mM
  [3H]amantadine uptake, % of Control, RPE-J: 86.2 ± 23.4 % of Control

## NCC(=O)O [Glycine]
TR-iBRB2 cells [1]; compound 2.5 mM, [3H]amantadine 1.67 µM, 3 min, 37 °C
  [3H]amantadine uptake, % of Control, TR-iBRB2: 102 ± 4 % of Control
RPE-J cells [3]; compound 2.5 mM
  [3H]amantadine uptake, % of Control, RPE-J: 116 ± 13 % of Control

## CN(C)CCCN1c2ccccc2CCc2ccccc21 [Imipramine]
TR-iBRB2 cells [1]
  activity at 200 µM: 8.37 ± 1.43%
RPE-J cells [3]
  activity at 200 µM: 16.9 ± 5.2%

## N=C(N)NCCC[C@H](N)C(=O)O [L-Arginine]
TR-iBRB2 cells [1]
  activity at 2500 µM: 127 ± 15%
RPE-J cells [3]
  activity at 2500 µM: 150 ± 38%

## N[C@@H](CC(=O)O)C(=O)O [L-Aspartic acid]
TR-iBRB2 cells [1]
  activity at 2500 µM: 101 ± 23%
RPE-J cells [3]
  activity at 2500 µM: 79.5 ± 12.7%
